EP1881000A1, “Conjugates of 2-fluoro-2-deoxy-glucose and their uses as anti cancer agents” (INSTITUT NATIONAL DE LA SANTE ET DE LA RECHERCHE MEDICALE …, priority 2006, dated 2008)

Assays:
B16 melanoma = assay: Antitumour activity in B16-melanoma bearing mice, IP chemotherapy protocol; format: in vivo, C57BL6J male mice; conditions: for Life span of the animals: B16 melanoma-bearing mice; for antitumour activity according to the NCI criteria decisions: in words
Protocol: (§1) Drugs were dissolved in a mixture of dimethylacetamide (Sigma) and oleic macrogolglycerides (Labrafil® M1944Cs, Gattefossé) (10:90%, vol/vol).
It is performed in tumour-bearing mice following an IP chemotherapy protocol.
To establish B16 melanoma model, 3 x 10^5 B16F0 cells (ATCC, Manassas, USA; in vitro doubling time of 16 hours) were suspended in 100 µL of phosphate buffer solution (PBS®, life Technologies) and injected into the subcutaneous tissue of the right flank of C57BL6J male mice, 6-weeks-old (Charles River, France) on day zero.
For both molecules and both animal models, treatment was initiated eight days post tumour grafting, when the tumours had reached a measurable size, corresponding to a calculated tumour weight (CTW) of 40 and 70 mg for B16 and CT-26 models respectively.
Animals were then randomly divided in both treatment and control groups. […] Two dosages have been evaluated, MTD and 0.75 MTD
Mice were weighed and observed every two days over a 30-day -period to evaluate general clinical state. Length and width of tumours were measured every two days over a 30-day-period using a dedicated slide calliper.
The Calculated Tumour Weight (CTW) of each tumour was determined according to the formula: CTW(mg) = L × 1^2 /2 [formula] with L = length in mm and 1= width in mm.
For subcutaneously growing tumours, antitumour activity is often assessed by using the log10 cell kill (LCK) which is calculated from the following formula: LCK = T-C value in days/3.32 × Td [formula] T is the median time (in days) required for the treatment group tumours to reach a predetermined CTW (e.g. 1000 mg). C is the median time (in days) required for the control group tumours to reach the same CTW. Td is the tumour volume doubling time (in days) estimated from the best fit straight line from a log-linear growth plot of the control group tumours in exponential growth.
An increase in life span was defined by the ratio of the median survival of drug-treated mice (Mt) versus controls (Mc): a survival Mt/Mc equal or higher than 125 % was sought
Mean weight loss of the group was used to evaluate treatment side effects. A mean body weight loss of greater 20% was considered to indicate an excessively toxic dosage.

[1] = Determination of the Maximum Tolerated Dose (MTD), acute toxicity after a single IP injection; format: in vivo, male OF1 mice; parameters: key to Clinical State Score (CSS) diarrhoea / Clinical State Score (CSS) rough coat / Clinical State Score (CSS) closed eyes / Clinical State Score (CSS) lethargy / Clinical State Score (CSS) total: per mouse 0 = absent, 1 = present per sign; summed over group; conditions: for dosage inducing high side effects (mainly diarrhoea): as early as Day 1 after IP administration; for MTD at 2 weeks: male, OF1, mouse, in vivo, zero deaths, maximal weight loss 15 % at Day 1, CSS as low as possible; for MTD at 2 weeks / doses inducing 100% mortality: single IP administration; for Clinical State Score (CSS) closed eyes / Clinical State Score (CSS) diarrhoea / Clinical State Score (CSS) lethargy / Clinical State Score (CSS) rough coat / Clinical State Score (CSS) total: group sum; for Number of deaths (day): non-tumour bearing mice
Protocol: as §1
Initially, the Maximum Tolerated Dose (MTD) after intraperitoneal (IP) administration was determinated.
For MTD determination, study was conducted on male OF1 mice weighing about 30 g, 6-weeks old (Charles River, France). Groups of five to six mice received a single IP injection of each drug at variable doses according to the compound (see Tables 2, 3 and 4).
Individual dose were based on the body weight of each mouse. All the mice received a constant injection volume of 250 µL per 25 g of body weight. A group of seven control mice received the vehicle.
After IP injection, mice were weighed and observed every two days over a 2 week-period to evaluate general clinical state. For each animal, a clinical state score (CSS) was calculated based on the absence (value 0) or presence (value 1) of diarrhoea, lethargy, rough coat and closed eyes. CSS was then calculated per group by summing individual scores. Loss of weight and mortality were also recorded.

[2] = B16 melanoma, dosage not stated
[3] = B16 melanoma, 75% MTD, IP D8, D12, D16
[4] = B16 melanoma, MTD, IP D8, D12, D16

CC(=O)OC[C@H]1O[C@@H](NC(=O)CNC(=O)CCCc2ccc(N(CCCl)CCCl)cc2)[C@H](F)[C@@H](OC(C)=O)[C@@H]1OC(C)=O [Compound 21a, N-[2-(3,4,6-tri-O-acetyl-2-deoxy-2-fluoro-β-D-glucopyranosylamino)-2-oxoethyl]-4-{4-[bis(2-chloroethyl)amino]phenyl}butanamide]
LCK (B16 melanoma; [2]): around 1.1
Life span of the animals (B16 melanoma): increased
Antitumour Efficacy (B16 melanoma; [3]): + (0.7 < LCK < 1.2 active drug (+))
LCK (B16 melanoma; [3]): 1.10
Survival Mt/Mc (B16 melanoma; [3]): 1.18
Weight loss (% max) (B16 melanoma; [3]): 16%
Antitumour Efficacy (B16 melanoma; [4]): + (0.7 < LCK < 1.2 active drug (+))
LCK (B16 melanoma; [4]): 1.02
Survival Mt/Mc (B16 melanoma; [4]): 0.74
Weight loss (% max) (B16 melanoma; [4]): 15.7%
antitumour activity according to the NCI criteria decisions (B16 melanoma; B16 melanoma): active
dosage inducing high side effects (mainly diarrhoea) [1]: ≥ 0.14 mmol/kg
MTD at 2 weeks [1]: 140 µmol/kg
Weight loss at day 1 ([1]; single IP 0.07 mmol/kg): 5.6%
Clinical State Score (CSS) closed eyes ([1]; single IP 0.07 mmol/kg): 0
Clinical State Score (CSS) diarrhoea ([1]; single IP 0.07 mmol/kg): 1
Clinical State Score (CSS) lethargy ([1]; single IP 0.07 mmol/kg): 0
Clinical State Score (CSS) rough coat ([1]; single IP 0.07 mmol/kg): 0
Clinical State Score (CSS) total ([1]; single IP 0.07 mmol/kg): 1
Number of deaths (day) ([1]; single IP 0.07 mmol/kg): 0
Weight loss at day 1 ([1]; single IP 0.14 mmol/kg): 8.4%
Clinical State Score (CSS) closed eyes ([1]; single IP 0.14 mmol/kg): 0
Clinical State Score (CSS) diarrhoea ([1]; single IP 0.14 mmol/kg): 4
Clinical State Score (CSS) lethargy ([1]; single IP 0.14 mmol/kg): 0
Clinical State Score (CSS) rough coat ([1]; single IP 0.14 mmol/kg): 0
Clinical State Score (CSS) total ([1]; single IP 0.14 mmol/kg): 4
Number of deaths (day) ([1]; single IP 0.14 mmol/kg): 0
Weight loss at day 1 ([1]; single IP 0.18 mmol/kg): 10.4%
Clinical State Score (CSS) closed eyes ([1]; single IP 0.18 mmol/kg): 0
Clinical State Score (CSS) diarrhoea ([1]; single IP 0.18 mmol/kg): 4
Clinical State Score (CSS) lethargy ([1]; single IP 0.18 mmol/kg): 0
Clinical State Score (CSS) rough coat ([1]; single IP 0.18 mmol/kg): 4
Clinical State Score (CSS) total ([1]; single IP 0.18 mmol/kg): 8
Number of deaths (day) ([1]; single IP 0.18 mmol/kg): 1
Weight loss at day 1 ([1]; single IP 0.21 mmol/kg): 9.7%
Clinical State Score (CSS) closed eyes ([1]; single IP 0.21 mmol/kg): 0
Clinical State Score (CSS) diarrhoea ([1]; single IP 0.21 mmol/kg): 1
Clinical State Score (CSS) lethargy ([1]; single IP 0.21 mmol/kg): 2
Clinical State Score (CSS) rough coat ([1]; single IP 0.21 mmol/kg): 4
Clinical State Score (CSS) total ([1]; single IP 0.21 mmol/kg): 7
Number of deaths (day) ([1]; single IP 0.21 mmol/kg): 1 (D1)
Number of deaths (day) ([1]; single IP 0.28 mmol/kg): 4 (D1)
Number of deaths (day) ([1]; single IP 0.56 mmol/kg): 4 (D1)
Number of deaths (day) ([1]; single IP 0.76 mmol/kg): 5 (D1)
doses inducing 100% mortality [1]: 0.76 mmol/kg

CC(=O)OC[C@H]1O[C@@H](Oc2ccc(NC(=O)CNC(=O)CCCc3ccc(N(CCCl)CCCl)cc3)cc2)[C@H](F)[C@@H](OC(C)=O)[C@@H]1OC(C)=O [Compound 40a, N-{2-[4-(3,4,6-tri-O-acetyl-2-deoxy-2-fluoro-β-D-glucopyranosyloxy)phenyl]amino-2-oxoethyl}-4-{4-[bis(2-chloroethyl)amino]phenyl}butanamide]
LCK (B16 melanoma; [2]): around 1.5
Life span of the animals (B16 melanoma): increased
Antitumour Efficacy (B16 melanoma; [3]): ++ (1.7 < LCK < 1.9 highly active drug (++))
LCK (B16 melanoma; [3]): 1.81
Survival Mt/Mc (B16 melanoma; [3]): 1.5
Weight loss (% max) (B16 melanoma; [3]): 13.6%
Antitumour Efficacy (B16 melanoma; [4]): ++ (1.7 < LCK < 1.9 highly active drug (++))
LCK (B16 melanoma; [4]): 1.53
Survival Mt/Mc (B16 melanoma; [4]): 0.8
Weight loss (% max) (B16 melanoma; [4]): 16.9%
antitumour activity according to the NCI criteria decisions (B16 melanoma; B16 melanoma): highly active
dosage inducing high side effects (mainly diarrhoea) [1]: ≥ 0.07 mmol/kg
MTD at 2 weeks [1]: 140 µmol/kg
Weight loss at day 1 ([1]; single IP 0.07 mmol/kg): 6.3%
Clinical State Score (CSS) closed eyes ([1]; single IP 0.07 mmol/kg): 0
Clinical State Score (CSS) diarrhoea ([1]; single IP 0.07 mmol/kg): 2
Clinical State Score (CSS) lethargy ([1]; single IP 0.07 mmol/kg): 0
Clinical State Score (CSS) rough coat ([1]; single IP 0.07 mmol/kg): 0
Clinical State Score (CSS) total ([1]; single IP 0.07 mmol/kg): 2
Number of deaths (day) ([1]; single IP 0.07 mmol/kg): 0
Weight loss at day 1 ([1]; single IP 0.14 mmol/kg): 14.9%
Clinical State Score (CSS) closed eyes ([1]; single IP 0.14 mmol/kg): 0
Clinical State Score (CSS) diarrhoea ([1]; single IP 0.14 mmol/kg): 2
Clinical State Score (CSS) lethargy ([1]; single IP 0.14 mmol/kg): 0
Clinical State Score (CSS) rough coat ([1]; single IP 0.14 mmol/kg): 0
Clinical State Score (CSS) total ([1]; single IP 0.14 mmol/kg): 2
Number of deaths (day) ([1]; single IP 0.14 mmol/kg): 0
Weight loss at day 1 ([1]; single IP 0.18 mmol/kg): 8.2%
Clinical State Score (CSS) closed eyes ([1]; single IP 0.18 mmol/kg): 0
Clinical State Score (CSS) diarrhoea ([1]; single IP 0.18 mmol/kg): 3
Clinical State Score (CSS) lethargy ([1]; single IP 0.18 mmol/kg): 0
Clinical State Score (CSS) rough coat ([1]; single IP 0.18 mmol/kg): 3
Clinical State Score (CSS) total ([1]; single IP 0.18 mmol/kg): 6
Number of deaths (day) ([1]; single IP 0.18 mmol/kg): 2
Number of deaths (day) ([1]; single IP 0.21 mmol/kg): 3 (D6)
Weight loss at day 1 ([1]; single IP 0.28 mmol/kg): 18.3%
Clinical State Score (CSS) closed eyes ([1]; single IP 0.28 mmol/kg): 2
Clinical State Score (CSS) diarrhoea ([1]; single IP 0.28 mmol/kg): 4
Clinical State Score (CSS) lethargy ([1]; single IP 0.28 mmol/kg): 2
Clinical State Score (CSS) rough coat ([1]; single IP 0.28 mmol/kg): 0
Clinical State Score (CSS) total ([1]; single IP 0.28 mmol/kg): 8
Number of deaths (day) ([1]; single IP 0.28 mmol/kg): 2 (D1)
Number of deaths (day) ([1]; single IP 0.42 mmol/kg): 3(D6)
Number of deaths (day) ([1]; single IP 0.56 mmol/kg): 5(D6,7,9,13,15)
doses inducing 100% mortality [1]: 0.56 mmol/kg

O=C(O)CCCc1ccc(N(CCCl)CCCl)cc1 [chlorambucil, reference compound]
LCK (B16 melanoma; [2]): < 0.7
Life span of the animals (B16 melanoma): not
Antitumour Efficacy (B16 melanoma; [3]): - (LCK < 0.7 inactive drug (-))
LCK (B16 melanoma; [3]): 0.05
Survival Mt/Mc (B16 melanoma; [3]): 0.67
Weight loss (% max) (B16 melanoma; [3]): 7.3%
Antitumour Efficacy (B16 melanoma; [4]): - (LCK < 0.7 inactive drug (-))
LCK (B16 melanoma; [4]): 0.24
Survival Mt/Mc (B16 melanoma; [4]): 1
Weight loss (% max) (B16 melanoma; [4]): 13.6%
tumour growth inhibition (CTW time-course) (B16 melanoma; B16 melanoma, both MTD and 0,75 MTD dosages, vs non-treated and vehicle-treated groups, p< 0.05): failed to induce any tumour growth inhibition
antitumour activity according to the NCI criteria decisions (B16 melanoma; B16 melanoma): inactive
antitumour activity according to the NCI criteria decisions (B16 melanoma; B16 melanoma, listed as Chlorambucil): failed in exhibiting any antitumour activity
dosage inducing high side effects (mainly diarrhoea) [1]: ≥ 0.0175 mmol/kg
MTD at 2 weeks [1]: 50 µmol/kg
Weight loss at day 1 ([1]; single IP 0.0175 mmol/kg): 1.4%
Number of deaths (day) ([1]; single IP 0.0175 mmol/kg): 0
Weight loss at day 1 ([1]; single IP 0.035 mmol/kg): 6.1%
Number of deaths (day) ([1]; single IP 0.035 mmol/kg): 0
Weight loss at day 1 ([1]; single IP 0.05 mmol/kg): 12.9%
Number of deaths (day) ([1]; single IP 0.05 mmol/kg): 0
Weight loss at day 1 ([1]; single IP 0.07 mmol/kg): 13.1%
Number of deaths (day) ([1]; single IP 0.07 mmol/kg): 0
Weight loss at day 1 ([1]; single IP 0.09 mmol/kg): 26%
Number of deaths (day) ([1]; single IP 0.09 mmol/kg): 1 (D1)
Number of deaths (day) ([1]; single IP 0.14 mmol/kg): 4 (D1)
doses inducing 100% mortality [1]: 0.14 mmol/kg
